The target in experiment [1] is T1, interaction of autophosphorylated CaMKII with α1C amino acids 1581-1690 (Rattus norvegicus, UniProt P11275).
T1 construct: made in house; host or cells: GST fusion from bacteria
Nature of the experiment: GST pull down of autophosphorylated α-CaMKII with α1C 1581-1690 fusion protein, peptide interference. The following applies: 40 μM peptide; 20 nM autophosphorylated α-CaMKII. Format: binding. The method, then:
(B) Immunoblot with CBα2 after GST pull down of purified autophosphorylated α-CaMKII (20 nM), using α1C amino acids 1581-1690 fused to GST. Pull down assay performed in the presence of 40 μM of the indicated peptide or the peptide diluent DMSO. (C) Immunoblots with CBα2 or an anti-CaM antibody after a GST pull down assay, using α1C amino acids 1581-1690 (WT), a ^1644TVGKFY^1649→EEDAAA mutant (Mut6), or GST alone, of purified autophosphorylated CaMKII (left) or CaM (right). Top panels show a Ponceau stain of each fusion protein. […] Asterisk indicates p<0.001 for a one-way analysis of variance followed by a Dunnett's test to identify specific pair-wise differences between the means for Mut6 vs. wt and GST vs. wt, n=4-8. […] Top panels show a Ponceau stain of each fusion protein.
Peptides spanning α1C residues 1581-1690 have previously been described (Pitt et al., 2001). The NMDA-L peptide (Bayer et al., 2001), peptides AC-2 (Hanson et al., 1989), AC-3i (Braun and Schulman, 1995), and AC-3c (Braun and Schulman, 1995) have been described elsewhere.
The binding reactions were accomplished in Tris binding buffer (50 mM Tris, 150 mM NaCl, 0.1% T-20 at pH 7.4 ml plus 0.1% BSA) containing 20 nM purified CaMKII. The total protein from the HEK293 cell lysates added to each binding reaction ranged from 9-22 μg, determined by normalizing for the amount of CaMKII activity (Singla et al., 2001). Pre-autophosphorylayion of CaMKII (purified and lysate) was accomplished at 4° C. for 5 min in Tris binding buffer plus 1 mM CaCl2, 5 μM CaM, 1 mM ATP, and 5 mM MgCl2 to restrict the sites of autophosphorylation to primarily Thr286 (Ikeda et al., 1991; Lai et al., 1987; Lou and Schulman, 1989). Final concentration of these components in the binding reaction (1:40) was 0.025 mM CaCl2, 0.125 μM CaM, 0.025 mM ATP, and 0.125 mM MgCl2. The binding reaction was rocked for 1 h at 4° C. and the beads extensively washed in Tris binding buffer (2-3× for 5 mins each). […] CaMKII binding was quantified using densiotometric measurement of band intensity using KODAK 1D Image Analysis Software (Eastman Kodak, Company). […]

The test system of experiment [2] is L-type Ca^2+ currents in cerebellar granule cells. The experiment can be described thus: Patch-clamp recording of Ca2+-dependent facilitation of L-type currents in cultured cerebellar granule cells. The conditions noted are these: 2 μM peptide in patch pipette; Ca^2+ as charge carrier; train of five pulses; without peptide facilitation averaged ~50%. It counts as cell-based, mouse. The procedure:
Dissociated cerebellar granule cells were prepared from 7-day old C57/BL6 mouse cerebella and grown in culture by a published protocol (Piedras-Renteria and Tsien, 1998; Randall and Tsien, 1995). The cerebellar granule cells were maintained in Minimal Essential Medium (Invitrogen) supplemented with 10% fetal bovine serum, glucose 5 mg/liter, transferrin 100 mg/liter, insulin 25 mg/liter, glutamine 300 mg/liter, and potassium chloride 20 mM. Cells were plated on Matrigel (Collaborative Biomedical Product) treated glass coverslips in 24-well chambers and maintained in a humidified, 37° C. incubator with […]/5% CO2. Cells were maintained for 6 to 9 days in culture prior to electrophysiological experiments. […]
Cerebellar granule cells, identified on the basis of morphology and size, comprised >90% of the cells in the primary culture. […] Voltage-gated Ca^2+ and Ba^2+ currents were recorded from cells depolarized to 0 mV with five 20 ms pulses (50 ms interpulse interval) from a −90 mV holding potential. […]

The target in experiment [3] is cloned L-type channels (subunit α1C77) (Homo sapiens, UniProt Q13936). The experiment can be described thus: Check for use-dependence of diltiazem block of calcium currents supported by cloned L-type channels. Format: cell-based. The following applies: same solutions and voltage protocol as in granule cells; diltiazem 100 μM. The procedure: Dissociated cerebellar granule cells were prepared from 7-day old C57/BL6 mouse cerebella and grown in culture by a published protocol (Piedras-Renteria and Tsien, 1998; Randall and Tsien, 1995). The cerebellar granule cells were maintained in Minimal Essential Medium (Invitrogen) supplemented with 10% fetal bovine serum, glucose 5 mg/liter, transferrin 100 mg/liter, insulin 25 mg/liter, glutamine 300 mg/liter, and potassium chloride 20 mM. Cells were plated on Matrigel (Collaborative Biomedical Product) treated glass coverslips in 24-well chambers and maintained in a humidified, 37° C. incubator with […]/5% CO2. Cells were maintained for 6 to 9 days in culture prior to electrophysiological experiments. HEK293 cells stably transfected with the α2-δ and β1C subunits (HEKα2β1) were grown in Dulbecco's Modified Eagle's Medium containing 10% v/v calf serum, penicillin (100 units/ml), streptomycin (100 μg/ml), and kept under positive selection with Geneticin (400 μg/ml) while being maintained as described above. cDNAs encoding the α1C77 subunit (Zühlke and Reuter, 1998) and the green fluorescent protein were transiently transfected into HEKα2β1 cells by using the Lipofectamine2000 reagent (Invitrogen). Electrophysiological experiments were performed >24 hrs after transfection.
Sequence of cloned L-type channels (subunit α1C77) (Q13936 1-2138 isoform Q13936-20): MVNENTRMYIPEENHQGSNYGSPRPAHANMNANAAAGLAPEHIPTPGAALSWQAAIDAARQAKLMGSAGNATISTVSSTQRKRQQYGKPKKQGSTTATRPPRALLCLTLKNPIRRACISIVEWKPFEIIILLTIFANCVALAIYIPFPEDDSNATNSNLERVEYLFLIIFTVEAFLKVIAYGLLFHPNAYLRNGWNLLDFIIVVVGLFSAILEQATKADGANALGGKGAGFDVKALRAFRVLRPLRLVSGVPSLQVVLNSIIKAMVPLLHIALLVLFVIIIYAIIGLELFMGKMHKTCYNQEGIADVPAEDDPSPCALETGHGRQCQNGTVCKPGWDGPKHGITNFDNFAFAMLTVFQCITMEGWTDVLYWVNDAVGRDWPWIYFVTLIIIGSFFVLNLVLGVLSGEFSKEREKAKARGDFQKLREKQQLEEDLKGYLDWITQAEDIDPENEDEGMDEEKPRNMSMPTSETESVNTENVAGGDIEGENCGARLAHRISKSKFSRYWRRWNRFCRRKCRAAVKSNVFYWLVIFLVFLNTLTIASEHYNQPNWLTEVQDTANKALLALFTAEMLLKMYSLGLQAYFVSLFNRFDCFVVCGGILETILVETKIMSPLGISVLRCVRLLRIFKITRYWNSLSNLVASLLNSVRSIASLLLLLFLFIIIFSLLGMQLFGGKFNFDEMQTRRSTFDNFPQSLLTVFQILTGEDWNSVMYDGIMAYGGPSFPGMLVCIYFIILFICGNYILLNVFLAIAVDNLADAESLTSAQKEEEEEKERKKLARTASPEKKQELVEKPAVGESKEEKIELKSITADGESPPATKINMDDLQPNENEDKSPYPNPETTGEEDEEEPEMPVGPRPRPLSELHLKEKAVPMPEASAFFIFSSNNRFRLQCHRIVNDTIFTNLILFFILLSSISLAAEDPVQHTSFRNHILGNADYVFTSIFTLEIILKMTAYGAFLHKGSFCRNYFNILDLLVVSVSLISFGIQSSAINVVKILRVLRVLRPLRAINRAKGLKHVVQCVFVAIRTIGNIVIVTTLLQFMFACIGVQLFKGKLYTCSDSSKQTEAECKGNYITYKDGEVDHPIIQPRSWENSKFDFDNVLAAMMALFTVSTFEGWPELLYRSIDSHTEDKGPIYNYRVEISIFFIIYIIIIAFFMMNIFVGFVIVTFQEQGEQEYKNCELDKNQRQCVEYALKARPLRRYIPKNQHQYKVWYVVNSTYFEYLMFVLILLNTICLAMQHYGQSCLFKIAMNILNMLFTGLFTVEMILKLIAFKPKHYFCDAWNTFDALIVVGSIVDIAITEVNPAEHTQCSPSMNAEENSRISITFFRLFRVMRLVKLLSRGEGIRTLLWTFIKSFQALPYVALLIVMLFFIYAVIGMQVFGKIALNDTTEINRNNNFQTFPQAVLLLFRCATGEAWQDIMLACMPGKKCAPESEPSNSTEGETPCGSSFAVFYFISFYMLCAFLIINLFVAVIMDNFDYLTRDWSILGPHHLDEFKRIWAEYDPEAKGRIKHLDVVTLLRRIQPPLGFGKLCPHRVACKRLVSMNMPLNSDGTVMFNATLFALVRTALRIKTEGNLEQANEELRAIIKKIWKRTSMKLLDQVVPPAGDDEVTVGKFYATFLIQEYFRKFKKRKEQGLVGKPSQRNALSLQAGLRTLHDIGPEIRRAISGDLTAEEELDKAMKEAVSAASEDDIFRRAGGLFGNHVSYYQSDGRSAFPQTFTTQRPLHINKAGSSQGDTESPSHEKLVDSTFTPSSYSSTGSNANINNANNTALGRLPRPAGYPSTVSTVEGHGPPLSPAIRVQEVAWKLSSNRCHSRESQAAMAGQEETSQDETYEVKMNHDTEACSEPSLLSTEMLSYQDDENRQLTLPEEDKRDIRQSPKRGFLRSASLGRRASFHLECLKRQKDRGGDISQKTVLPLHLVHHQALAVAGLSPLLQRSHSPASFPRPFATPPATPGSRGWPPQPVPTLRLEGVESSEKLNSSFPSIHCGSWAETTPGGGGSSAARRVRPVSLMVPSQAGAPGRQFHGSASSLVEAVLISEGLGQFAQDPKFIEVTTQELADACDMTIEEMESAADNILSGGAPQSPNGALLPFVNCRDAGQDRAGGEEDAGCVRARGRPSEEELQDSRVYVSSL
Sequence of cloned L-type channels (subunit α1C77) (P54289 25-956 partner limits assumed): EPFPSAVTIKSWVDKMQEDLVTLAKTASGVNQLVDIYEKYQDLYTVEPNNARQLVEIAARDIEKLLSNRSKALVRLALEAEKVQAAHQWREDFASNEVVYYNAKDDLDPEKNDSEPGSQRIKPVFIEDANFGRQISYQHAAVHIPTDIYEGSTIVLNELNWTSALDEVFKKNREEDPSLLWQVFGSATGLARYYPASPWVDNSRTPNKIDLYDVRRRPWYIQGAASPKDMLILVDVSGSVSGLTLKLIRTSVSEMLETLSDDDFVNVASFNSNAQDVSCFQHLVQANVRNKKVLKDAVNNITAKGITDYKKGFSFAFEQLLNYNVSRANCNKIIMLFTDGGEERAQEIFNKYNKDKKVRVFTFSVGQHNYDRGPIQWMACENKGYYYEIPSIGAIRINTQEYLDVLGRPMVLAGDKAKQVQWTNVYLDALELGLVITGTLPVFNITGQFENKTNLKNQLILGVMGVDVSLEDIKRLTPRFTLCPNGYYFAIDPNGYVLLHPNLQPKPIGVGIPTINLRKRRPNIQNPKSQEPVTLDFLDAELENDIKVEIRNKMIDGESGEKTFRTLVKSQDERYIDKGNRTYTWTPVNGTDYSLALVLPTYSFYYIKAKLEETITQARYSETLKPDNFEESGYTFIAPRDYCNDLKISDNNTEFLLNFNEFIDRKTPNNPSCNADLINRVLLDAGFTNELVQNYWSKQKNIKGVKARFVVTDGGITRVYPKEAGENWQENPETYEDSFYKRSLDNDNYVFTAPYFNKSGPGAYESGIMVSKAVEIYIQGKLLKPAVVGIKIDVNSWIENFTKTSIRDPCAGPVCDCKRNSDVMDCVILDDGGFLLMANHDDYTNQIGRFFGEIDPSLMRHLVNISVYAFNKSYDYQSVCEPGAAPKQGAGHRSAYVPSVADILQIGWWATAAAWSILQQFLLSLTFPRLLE
Sequence of cloned L-type channels (subunit α1C77) (P54289 957-1103 partner limits assumed): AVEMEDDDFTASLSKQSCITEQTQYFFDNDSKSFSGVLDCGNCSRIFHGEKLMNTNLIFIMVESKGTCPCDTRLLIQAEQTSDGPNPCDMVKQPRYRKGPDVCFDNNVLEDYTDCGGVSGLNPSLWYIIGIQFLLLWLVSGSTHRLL
Sequence of cloned L-type channels (subunit α1C77) (Q02641 whole entry partner): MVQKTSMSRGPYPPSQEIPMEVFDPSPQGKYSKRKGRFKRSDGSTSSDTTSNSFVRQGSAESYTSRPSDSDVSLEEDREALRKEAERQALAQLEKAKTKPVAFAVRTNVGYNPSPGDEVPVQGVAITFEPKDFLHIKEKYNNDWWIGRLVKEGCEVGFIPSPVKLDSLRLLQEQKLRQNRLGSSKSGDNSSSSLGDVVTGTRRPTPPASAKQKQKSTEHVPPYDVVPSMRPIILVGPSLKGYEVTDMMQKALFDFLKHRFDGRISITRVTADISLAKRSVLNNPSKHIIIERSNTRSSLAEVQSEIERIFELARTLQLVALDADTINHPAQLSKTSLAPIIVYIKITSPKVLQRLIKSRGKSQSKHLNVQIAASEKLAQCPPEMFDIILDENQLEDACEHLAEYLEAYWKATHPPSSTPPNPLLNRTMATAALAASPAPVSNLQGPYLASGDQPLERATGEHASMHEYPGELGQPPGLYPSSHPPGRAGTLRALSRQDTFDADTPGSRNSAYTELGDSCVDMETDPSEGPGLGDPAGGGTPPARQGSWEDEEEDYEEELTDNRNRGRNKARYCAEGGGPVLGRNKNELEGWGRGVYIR

Experiment [4] concerns CaMKII. The experiment can be described thus: CaMKII dephosphorylation using PP1, autonomous activity measurement. It counts as biochemical. The following applies: n=4. The method, then:
Immunoblots with CBα2 or a phospho-specific CaMKII monoclonal antibody after GST pull down assays, using α1C amino acids 1509-1950 and 20 nM autophosphorylated α-CaMKII. (A) 5 mM EGTA was present in the binding reaction and/or in the wash; in (B), purified recombinant PP1 was added before (PP1-Pre) or after (PP1-Post) the binding reaction in the presence or absence of 5 mM EGTA, as indicated. (C) Time course of reversal of CaMKII autonomous activity following PP1 treatment in solution (n=4). (D) Activity measurements, using peptide AC-2 as a substrate, of CaMKII recovered in GST pull down assays, using α1C amino acids 1509-1950. Ca^2+/CaM-dependent and autonomous activity measurements of CaMKII recovered after treatment with recombinant PP1 for 30 min (PP1) or no treatment (−) in the binding assay (n=4). (E) Proposed mechanism of CaMKII binding to α1C to form a local and dedicated Ca^2+ spike integrator for CDF. […] Ca ^2+/CaM activation and Thr 286 autophosphorylation displace the CaMKII autoregulatory domain within the catalytic lobe to activate the subunit (yellow) and to expose an α1C tethering site. […] CaMKII may remain tethered to other cytoplasmic domains of α1C, as well. […]

Sequence of CaMKII (P11275 whole entry, the tested form may be a part): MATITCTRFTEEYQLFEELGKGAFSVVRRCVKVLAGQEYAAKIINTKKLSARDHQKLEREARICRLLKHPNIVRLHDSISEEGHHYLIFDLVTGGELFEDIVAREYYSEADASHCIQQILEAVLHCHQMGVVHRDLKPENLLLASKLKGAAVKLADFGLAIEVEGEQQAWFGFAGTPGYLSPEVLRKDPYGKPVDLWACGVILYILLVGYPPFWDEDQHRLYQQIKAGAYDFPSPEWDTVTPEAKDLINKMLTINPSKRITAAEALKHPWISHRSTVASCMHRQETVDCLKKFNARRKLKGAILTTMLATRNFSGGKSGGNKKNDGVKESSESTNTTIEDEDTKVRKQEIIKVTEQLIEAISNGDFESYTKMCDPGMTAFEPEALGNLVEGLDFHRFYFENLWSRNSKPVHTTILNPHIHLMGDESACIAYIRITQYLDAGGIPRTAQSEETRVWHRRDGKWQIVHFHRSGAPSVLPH

As for “1639-1660: ~22 aa peptide generated from α1C residues 1639-1660 (Pitt et al., 2001) (KIWKRTSMKLLDQVVPPAGDDE; UniProt Q13936 1639-1660, looked up, fragment)”, the “interaction of the kinase with the 1581-1690 fusion protein in presence of peptide” value (“interaction of the kinase” for short) in experiment [1] is listed as “dramatically reduced”.

Regarding “1615-1636: ~22 aa peptide of α1C residues 1615-1636, site important for tethering of apoCaM (RTALRIKTEGNLEQANEELRAI; UniProt Q13936 1615-1636, looked up, fragment)”, the “interaction of the kinase” value in experiment [1] is recorded as “not inhibited”.

With “autocamtide-2-related inhibitory peptide (KKALRRQEAVDAL)”, in experiment [2], the “decrease in peak L-type current over the course of the depolarizing pulse train” value was ~25%.

Consider `COc1ccc([C@@H]2Sc3ccccc3N(CCN(C)C)C(=O)[C@@H]2OC(C)=O)cc1` [diltiazem], for which, in experiment [3], the “use-dependence of diltiazem block of calcium currents” value is “none were found”.

In the case of “PP1: Hisx6-tagged protein phosphatase 1 catalytic subunit, purified recombinant”, the “remaining autonomous activity of α1C-bound CaMKII, % of that without PP1 treatment” value in experiment [4] (PP1 for 30 min, peptide AC-2 as substrate) amounted to 1.2±0.6%. Besides, the “time to complete dephosphorylation (loss of autonomous activity) of soluble kinase” value in experiment [4] (soluble CaMKII in solution) is on record as ≤ 30 min.

As to “1589-1610: ~22 aa peptide of α1C residues 1589-1610, site important for tethering of apoCaM (KRLVSMNMPLNSDGTVMFNATL; UniProt Q13936 1589-1610, looked up, fragment)”, in experiment [1], the “interaction of the kinase” value is listed as “not inhibited”.
